Measured values taken from ChEMBL document CHEMBL1201862, “PubChem BioAssay data set” (2004).
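Five concentrations, 48 hours, 96-well plates. Abbreviation: GI50, concentration required for 50% inhibition of growth.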 Activity calls are given as the source filed them. Rule as the data show it: active = GI50 up to about 1.1 µM and inactive = higher.

Legend:
Assay in all cases: NCI tumour cell line growth inhibition, 48 h
[1] = system: SK-MEL-2
[2] = system: U-251
[3] = system: OVCAR-4
[4] = system: UACC-62
[5] = system: MOLT-4
[6] = system: SK-MEL-28
[7] = system: SK-OV-3
[8] = system: ACHN
[9] = system: RXF 393
[10] = system: HCT-116
[11] = system: HOP-92
[12] = system: IGROV-1
[13] = system: KM12
[14] = system: UO-31
[15] = system: SF-295
[16] = system: TK-10
[17] = system: LOX IMVI
[18] = system: SW-620
[19] = system: OVCAR-5
[20] = system: NCI-H460

Compound	GI50 [1]	GI50 [2]	GI50 [3]	GI50 [4]	GI50 [5]	GI50 [6]	GI50 [7]	GI50 [8]	GI50 [9]	GI50 [10]	GI50 [11]	GI50 [12]	GI50 [13]	GI50 [14]	GI50 [15]	GI50 [16]	GI50 [17]	GI50 [18]	GI50 [19]	GI50 [20]
O=c1oc2ccccc2n1P(=O)(Oc1ccc(Cl)cc1)n1c(=O)oc2ccccc21	55 µM (inactive)	> 100 µM (inactive)	> 100 µM (inactive)	61 µM (inactive)	39.5 µM (inactive)	> 100 µM (inactive)	> 100 µM (inactive)	> 100 µM (inactive)	> 100 µM (inactive)	> 100 µM (inactive)	> 100 µM (inactive)	> 100 µM (inactive)	85.5 µM (inactive)	> 100 µM (inactive)	93.8 µM (inactive)	> 100 µM (inactive)	> 100 µM (inactive)	> 100 µM (inactive)	> 100 µM (inactive)	–
CCCCCCCCCCCCCCCc1nnc(S)[nH]1	29.6 µM (inactive)	> 100 µM (inactive)	46.1 µM (inactive)	97.9 µM (inactive)	20.8 µM (inactive)	> 100 µM (inactive)	> 100 µM (inactive)	> 100 µM (inactive)	> 100 µM (inactive)	> 100 µM (inactive)	–	–	> 100 µM (inactive)	24 µM (inactive)	–	> 100 µM (inactive)	> 100 µM (inactive)	–	> 100 µM (inactive)	> 100 µM (inactive)
COc1ccc2nc3c(C)cc4ccccc4n3c2c1	–	44.7 µM (inactive)	–	> 100 µM (inactive)	23 µM (inactive)	> 100 µM (inactive)	> 100 µM (inactive)	47.3 µM (inactive)	25.8 µM (inactive)	41.6 µM (inactive)	50.8 µM (inactive)	29.2 µM (inactive)	> 100 µM (inactive)	52 µM (inactive)	78.7 µM (inactive)	80.2 µM (inactive)	–	73.6 µM (inactive)	> 100 µM (inactive)	25.3 µM (inactive)
CN1C(=O)C(C#N)C2C[C@@]1(C)Oc1ccccc12 (stereo partly drawn)	> 100 µM (inactive)	> 100 µM (inactive)	> 100 µM (inactive)	> 100 µM (inactive)	7.29 µM (inactive)	> 100 µM (inactive)	> 100 µM (inactive)	> 100 µM (inactive)	> 100 µM (inactive)	> 100 µM (inactive)	> 100 µM (inactive)	> 100 µM (inactive)	> 100 µM (inactive)	> 100 µM (inactive)	> 100 µM (inactive)	> 100 µM (inactive)	> 100 µM (inactive)	> 100 µM (inactive)	> 100 µM (inactive)	91.8 µM (inactive)
C=C1CC[C@@H](Br)C(C)(C)[C@]12CCC(C)(O)C(Cl)C2 (stereo partly drawn)	18.5 µM (inactive)	16.2 µM (inactive)	–	18.5 µM (inactive)	18.7 µM (inactive)	20 µM (inactive)	19.5 µM (inactive)	20.9 µM (inactive)	17.5 µM (inactive)	18.1 µM (inactive)	23 µM (inactive)	23.1 µM (inactive)	18.2 µM (inactive)	18.1 µM (inactive)	20.6 µM (inactive)	29.2 µM (inactive)	19.1 µM (inactive)	14.2 µM (inactive)	19.5 µM (inactive)	17 µM (inactive)
CC(=O)/N=C1\N/C(=C/c2cc([N+](=O)[O-])ccc2O)CN1C	> 100 µM (inactive)	> 100 µM (inactive)	> 100 µM (inactive)	> 100 µM (inactive)	6.31 µM (inactive)	> 100 µM (inactive)	> 100 µM (inactive)	> 100 µM (inactive)	–	> 100 µM (inactive)	> 100 µM (inactive)	> 100 µM (inactive)	> 100 µM (inactive)	> 100 µM (inactive)	> 100 µM (inactive)	> 100 µM (inactive)	> 100 µM (inactive)	> 100 µM (inactive)	> 100 µM (inactive)	> 100 µM (inactive)
CCOC(=O)/C=C1/C(CCCOCc2ccccc2)C2CCCC23CC2(CCN13)OCCO2 (stereo not drawn)	17 µM (inactive)	20.1 µM (inactive)	24.3 µM (inactive)	15.2 µM (inactive)	11.4 µM (inactive)	18.4 µM (inactive)	43 µM (inactive)	22.3 µM (inactive)	6.32 µM (inactive)	–	–	24.7 µM (inactive)	22.3 µM (inactive)	17.2 µM (inactive)	23.6 µM (inactive)	36.2 µM (inactive)	18.1 µM (inactive)	33.9 µM (inactive)	44 µM (inactive)	18.7 µM (inactive)
CC1=C(SCCO)C(=O)c2ccccc2C1=O	11.7 µM (inactive)	13.3 µM (inactive)	3.31 µM (inactive)	14.9 µM (inactive)	0.324 µM (active)	11 µM (inactive)	16 µM (inactive)	3.52 µM (inactive)	13.4 µM (inactive)	4.76 µM (inactive)	1.7 µM (inactive)	14.2 µM (inactive)	13.6 µM (inactive)	8.63 µM (inactive)	17.2 µM (inactive)	16.8 µM (inactive)	12.1 µM (inactive)	12.2 µM (inactive)	17.9 µM (inactive)	13.2 µM (inactive)
